# Experimental data reported in patent US8648201B2, “Aminopyridine derivatives for treating tumors and inflammatory diseases” (MERCK PATENT GmbH, priority 2009, dated 2014).
# How the values were obtained:
# PDK1 = molecular target: T1, PDK1 (Homo sapiens, UniProt O15530); test: IC50 PDK1 (cell); format: cell-based
# T1 construct: endogenous in cells; host or cells: commercially available colon carcinoma, ovary, prostate or breast cell lines (none named)
# T1 sequence (O15530 1-556): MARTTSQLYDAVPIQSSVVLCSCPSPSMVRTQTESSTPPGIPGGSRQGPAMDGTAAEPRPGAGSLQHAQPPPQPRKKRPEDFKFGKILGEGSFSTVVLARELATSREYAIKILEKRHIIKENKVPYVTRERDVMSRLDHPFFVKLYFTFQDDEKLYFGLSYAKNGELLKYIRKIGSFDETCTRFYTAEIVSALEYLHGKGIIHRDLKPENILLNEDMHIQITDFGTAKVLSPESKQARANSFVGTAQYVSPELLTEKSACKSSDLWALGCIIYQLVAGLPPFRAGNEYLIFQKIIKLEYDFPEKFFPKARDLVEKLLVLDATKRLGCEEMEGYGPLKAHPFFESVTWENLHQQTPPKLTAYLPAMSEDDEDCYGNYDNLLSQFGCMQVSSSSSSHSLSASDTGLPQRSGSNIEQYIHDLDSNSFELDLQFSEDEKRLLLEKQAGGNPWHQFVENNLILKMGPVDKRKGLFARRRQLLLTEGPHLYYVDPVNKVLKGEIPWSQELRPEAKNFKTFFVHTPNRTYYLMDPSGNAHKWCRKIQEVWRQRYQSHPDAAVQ
# Protocol: The cells are sown in a suitable cell density in microtitre plates (96-well format) and the test substances are added in the form of a concentration series. After four further days of cultivation in serum-containing medium, the tumour cell proliferation/tumour cell vitality can be determined by means of an Alamar Blue test system. A defined number of cells (for example 2000 cells) per culture/well in a volume of 180 μl of culture medium are sown in microtitre plates (96 well cell-culture plates) using a multichannel pipette. The cells are subsequently cultivated in a CO2 incubator (37° C. and 10% CO2). The test substances are dissolved, for example, in DMSO and subsequently employed in corresponding concentration (if desired in a dilution series) in the cell culture medium. The dilution steps can be adapted depending on the efficiency of the active ingredients and the desired spread of the concentrations. Cell culture medium is added to the test substances in corresponding concentrations. The addition of the test substances to the cells can take place on the same day as the sowing of the cells. To this end, in each case 20 μl of substance solution from the predilution plate are added to the cultures/wells. The cells are cultivated for a further 4 days at 37° Celsius and 10% CO2. In each case, 20 μl of Alamar Blue reagent are added per well, and the microtitre plates are incubated, for example, for a further seven hours in a CO2 incubator (at 37° C. and 10% CO2). The plates are measured in a reader with a fluorescence filter at a wavelength of 540 nm. The plates can be shaken gently immediately before the measurement. The absorbance value of the medium control (no cells and test substances used) is subtracted from all other absorbance values. The controls (cells without test substance) are set equal to 100 percent, and all other absorbance values are set in relation thereto (for example in % of control): Calculation: 100*(value with cells and test substance−value of medium control)/(value with cells−value of medium control) IC50 values (50% inhibition) are determined with the aid of statistics programs, such as, for example, RS1.
# IRAK-4 = molecular target: T2, IRAK-4 (Homo sapiens, UniProt Q9NWZ3); test: IC50 IRAK-4 (cell); format: cell-based
# T2 construct: His6 (N); Dr.Jaekel
# T2 sequence (Q9NWZ3 1-460): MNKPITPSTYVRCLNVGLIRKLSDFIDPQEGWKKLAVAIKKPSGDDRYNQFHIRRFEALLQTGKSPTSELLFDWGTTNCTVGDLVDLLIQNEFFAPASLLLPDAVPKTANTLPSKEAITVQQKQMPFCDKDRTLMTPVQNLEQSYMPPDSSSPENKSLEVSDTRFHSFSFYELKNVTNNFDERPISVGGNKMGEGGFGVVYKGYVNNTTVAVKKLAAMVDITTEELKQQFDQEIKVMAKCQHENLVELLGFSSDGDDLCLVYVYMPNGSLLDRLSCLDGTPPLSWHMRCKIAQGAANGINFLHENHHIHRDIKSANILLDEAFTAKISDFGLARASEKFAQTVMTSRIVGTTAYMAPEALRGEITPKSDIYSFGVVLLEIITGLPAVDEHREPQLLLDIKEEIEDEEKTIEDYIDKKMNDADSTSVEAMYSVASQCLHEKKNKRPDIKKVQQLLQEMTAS
Structure (SMILES),IC50 (PDK1),IC50 (IRAK-4)
"CC1CC(=O)NN=C1c1ccc2nc(-c3cc(-c4cnn(C)c4)cnc3N)[nH]c2c1 (racemic) [Compound A1, 6-{2-[2-amino-5-(1-methyl-1H-pyrazol-4-yl)pyridin-3-yl]-3H-benzimidazol-5-yl}-5-methyl-4,5-dihydro-2H-pyridazin-3-one]",0.1 to 10 µM,–
"Cn1cc(-c2cnc(N)c(-c3nc4ccc(C(=O)NCCc5ccc(F)c(F)c5)cc4[nH]3)c2)cn1 [Compound A128, N-[2-(3,4-difluorophenyl)ethyl]-2-[2-amino-5-(1-methyl-1H-pyrazol-4-yl)pyridin-3-yl]-3H-benzimidazole-5-carboxamide]",> 10 µM,–
"COc1ccc2nc(-c3cc(-c4ccsc4)cnc3N)[nH]c2c1 [Compound A144, 3-(6-methoxy-1H-benzimidazol-2-yl)-5-thiophen-3-ylpyridin-2-ylamine]",> 10 µM,–
"COc1ccc2nc(-c3cc(-c4ccc(C(=O)NC5CCN(C)CC5)s4)cnc3N)[nH]c2c1 [Compound A133, N-(1-Methylpiperidin-4-yl)-5-[6-amino-5-(6-methoxy-1H-benzimidazol-2-yl)pyridin-3-yl]thiophene-2-carboxamide]",> 10 µM,–
Cn1cc(-c2cnc(N)c(-c3nc4cccc(CO)c4[nH]3)c2)cn1 [Compound A52],0.1 to 10 µM,–

# The next lines start with the values.
IC50 (PDK1),IC50 (IRAK-4),Structure (SMILES)
> 10 µM,0.1 to 10 µM,"COc1ccc2nc(-c3cc(-c4cnn(C5CCNCC5)c4)cnc3N)[nH]c2c1 [Compound A92, 3-(6-Methoxy-1H-benzimidazol-2-yl)-5-(1-piperidin-4-yl-1H-pyrazol-4-yl)pyridin-2-ylamine]"
> 10 µM,–,COc1ccc2nc(-c3cc(-c4cnn(C)c4)cnc3N)[nH]c2c1 [Compound A43]
